Source: article PMC4342496 (The Journal of Biological Chemistry, 2015)
Read-outs that look alike come from different tables or passages of the source.

Tests used:
BaIMPDH = target: T1, BaIMPDH (Bacillus anthracis, UniProt A0A6L8P2U9); assay type: biochemical
T1 construct: gene guaB

CjIMPDH [1] = target: T2, CjIMPDH (Campylobacter jejuni, UniProt Q0P9J4); test: steady-state kinetics, A340; assay type: biochemical; conditions: substrate inhibition by NAD+; pH 8.0, 25 °C
T2 construct: gene guaB; full-length wild type, N-terminal His6 tag, pMCSG7, E. coli; tetramer
T2 sequence (Q0P9J4 1-485): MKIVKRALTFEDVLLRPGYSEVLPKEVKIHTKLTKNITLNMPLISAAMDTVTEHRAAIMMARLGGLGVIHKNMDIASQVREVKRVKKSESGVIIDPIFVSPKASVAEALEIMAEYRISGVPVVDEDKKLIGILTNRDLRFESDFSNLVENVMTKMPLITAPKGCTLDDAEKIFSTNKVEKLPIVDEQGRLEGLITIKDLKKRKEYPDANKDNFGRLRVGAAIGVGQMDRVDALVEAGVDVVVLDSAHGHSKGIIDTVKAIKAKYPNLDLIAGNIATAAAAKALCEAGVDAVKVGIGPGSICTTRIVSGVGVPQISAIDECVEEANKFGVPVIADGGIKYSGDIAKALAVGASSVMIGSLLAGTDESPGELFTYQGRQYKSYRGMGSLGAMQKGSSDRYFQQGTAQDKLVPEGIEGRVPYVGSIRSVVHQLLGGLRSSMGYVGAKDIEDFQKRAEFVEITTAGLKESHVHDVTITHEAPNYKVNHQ
Excerpt: steady-state kinetics, A340 on CjIMPDH

CjIMPDH [2] = target: T2, CjIMPDH; test: NADH production, A340; assay type: biochemical
Excerpt: NADH production, A340 on CjIMPDH

CpIMPDH = target: T3, CpIMPDH (Cryptosporidium parvum, UniProt Q8T6T2); test: NADH production, A340; assay type: biochemical
T3 construct: gene 56k.02; recombinant
T3 sequence (Q8T6T2 1-400): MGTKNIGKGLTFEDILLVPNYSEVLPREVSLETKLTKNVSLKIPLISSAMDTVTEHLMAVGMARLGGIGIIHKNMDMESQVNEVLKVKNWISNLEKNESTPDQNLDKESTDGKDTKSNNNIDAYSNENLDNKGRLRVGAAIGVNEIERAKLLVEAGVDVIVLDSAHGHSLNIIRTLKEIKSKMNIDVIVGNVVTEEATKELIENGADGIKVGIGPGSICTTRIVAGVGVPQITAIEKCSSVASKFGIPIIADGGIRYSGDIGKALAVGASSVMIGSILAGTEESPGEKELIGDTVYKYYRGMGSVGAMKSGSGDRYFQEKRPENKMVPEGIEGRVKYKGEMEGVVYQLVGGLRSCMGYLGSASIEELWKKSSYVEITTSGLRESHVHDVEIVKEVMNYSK
Excerpt: NADH production, A340 on CpIMPDH

CjIMPDHΔS = target: T4, CjIMPDHΔS (Campylobacter jejuni, UniProt Q0P9J4, INS91G/DEL92-195); test: NADH production, A340; assay type: biochemical; conditions: pH 8.0, 1 mM IMP, NAD+ about 2.5 x Km, 10 min preincubation, room temperature
T4 construct: gene guaB
T4 sequence (Q0P9J4 1-485 INS91G/DEL92-195): T2 sequence (Q0P9J4 1-485)
Excerpt: NADH production, A340 on CjIMPDHΔS

VcIMPDH = target: T5, VcIMPDH (Vibrio cholerae, UniProt Q9KTW3); test: NADH production, A340; assay type: biochemical; conditions: read-out: IC50 / 1
T5 construct: gene guaB; full-length wild type, N-terminal His6 tag, recombinant E. coli; tetramer
T5 sequence (Q9KTW3 1-489): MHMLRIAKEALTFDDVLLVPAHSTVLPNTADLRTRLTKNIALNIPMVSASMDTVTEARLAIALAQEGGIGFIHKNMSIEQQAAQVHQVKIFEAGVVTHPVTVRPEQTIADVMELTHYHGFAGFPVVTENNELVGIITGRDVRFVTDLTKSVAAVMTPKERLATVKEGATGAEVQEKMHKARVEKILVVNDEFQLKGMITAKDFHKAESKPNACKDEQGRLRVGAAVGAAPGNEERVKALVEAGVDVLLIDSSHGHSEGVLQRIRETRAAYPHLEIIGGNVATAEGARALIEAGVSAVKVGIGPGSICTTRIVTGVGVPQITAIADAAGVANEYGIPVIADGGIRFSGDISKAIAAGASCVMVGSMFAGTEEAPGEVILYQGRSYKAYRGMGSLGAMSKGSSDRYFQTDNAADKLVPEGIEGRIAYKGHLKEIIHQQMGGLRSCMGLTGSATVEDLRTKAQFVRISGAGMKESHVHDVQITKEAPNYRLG
Excerpt: NADH production, A340 on VcIMPDH

[3] = test system: NC(=O)c1ccc[n+]([C@@H]2O[C@H](COP(=O)(O)OP(=O)(O)OC[C@H]3O[C@@H](n4cnc5c(N)ncnc54)[C@H](O)[C@@H]3O)[C@@H](O)[C@H]2O)c1; test: purified protein; conditions: pH 8.0; 25.0 °C

T1 sequence (A0A6L8P2U9 1-487 limits assumed): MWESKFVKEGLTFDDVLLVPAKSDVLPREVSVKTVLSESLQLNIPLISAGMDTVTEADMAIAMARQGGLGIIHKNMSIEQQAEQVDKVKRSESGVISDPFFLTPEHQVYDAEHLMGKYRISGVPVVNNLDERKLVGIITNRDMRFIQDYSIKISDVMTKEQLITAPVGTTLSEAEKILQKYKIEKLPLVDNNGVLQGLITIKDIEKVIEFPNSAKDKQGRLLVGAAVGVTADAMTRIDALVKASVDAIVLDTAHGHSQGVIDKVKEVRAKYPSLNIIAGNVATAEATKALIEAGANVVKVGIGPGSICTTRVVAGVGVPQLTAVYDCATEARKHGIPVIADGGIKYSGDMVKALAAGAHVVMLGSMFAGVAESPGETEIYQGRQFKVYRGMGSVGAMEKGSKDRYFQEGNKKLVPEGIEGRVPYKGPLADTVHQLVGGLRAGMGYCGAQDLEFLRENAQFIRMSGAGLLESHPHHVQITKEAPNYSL

Q: What does the source list for `NC(=O)c1ccc[n+]([C@@H]2O[C@H](COP(=O)(O)OP(=O)(O)OC[C@H]3O[C@@H](n4cnc5c(N)ncnc54)[C@H](O)[C@@H]3O)[C@@H](O)[C@H]2O)c1` [NAD^+]?
A: NAD^+ Kii (BaIMPDH): 3.9 ± 0.8 mM; NAD^+ Kii (CjIMPDH [1]): 20 ± 2 mM

Q: For `C[C@@H](Oc1cc[n+]([O-])c2ccccc12)c1cn(-c2ccc(Cl)cc2)nn1` [compound 1, 4-[(1R)-[1-(4-chlorophenyl)-1H-1,2,3-triazol-4yl]ethoxy]quinoline-1-oxide], which IC50 (CjIMPDH [2]; read-out: IC50 / 1) is on record?
A: 140 ± 30 nM

Q: What about the IC50 (CpIMPDH; read-out: IC50 / 1) of the same compound?
A: 9 ± 2 nM

Q: And the IC50 (CjIMPDHΔS; read-out: IC50 / 1)?
A: 107 ± 8 nM

Q: How did the IC50 (CjIMPDH [2]; read-out: IC50 / 3) turn out when `Cn1nc(CC(=O)Nc2ccc3oc4c(c3c2)CCCC4)c2ccccc2c1=O` [compound 3, 3,4-dihydro-3-methyl-4-oxo-N-(6,7,8,9-tetrahydro2-dibenzofuranyl)-1-phthalazineacetamide] was run?
A: 169 ± 20 nM

Q: What about the IC50 (CpIMPDH; read-out: IC50 / 3) of the same compound?
A: 24 ± 6 nM

Q: And the IC50 (CjIMPDHΔS; read-out: IC50 / 3)?
A: 200 ± 20 nM

Q: And the IC50 (VcIMPDH)?
A: > 5000 nM

Q: How did the IC50 (CjIMPDH [2]; read-out: IC50 / 4) turn out when `C=C(C)c1cccc(C(C)(C)NC(=O)Nc2ccc(Br)cc2)c1` [compound 4] was run?
A: 36 ± 8 nM

Q: What about the IC50 (CpIMPDH; read-out: IC50 / 4) of the same compound?
A: 11 ± 5 nM

Q: What about the IC50 (CjIMPDHΔS; read-out: IC50 / 4) of the same compound?
A: 67 ± 13 nM

Q: What about the IC50 (VcIMPDH) of the same compound?
A: > 5000 nM

Q: How did the IC50 (CjIMPDH [2]; read-out: IC50 / 6) turn out when `C/C(=N\O)c1cccc(C(C)(C)NC(=O)Nc2ccc(Br)cc2)c1` [compound 6] was run?
A: 29 ± 4 nM

Q: What about the IC50 (CpIMPDH; read-out: IC50 / 6) of the same compound?
A: 8 ± 2 nM

Q: And the IC50 (CjIMPDHΔS; read-out: IC50 / 6)?
A: 46 ± 4 nM

Q: And the IC50 (VcIMPDH)?
A: > 5000 nM

Q: With `C[C@H](Oc1cccc2ccccc12)C(=O)Nc1ccc2oc(-c3ccncc3)nc2c1` [compound 7, 2-(1-naphthalenyloxy)-N-[2-(4-pyridinyl)-5-benzoxazolyl)-(2S)-propanamide] as the compound, how does the IC50 (CjIMPDH [2]; read-out: IC50 / 7) read?
A: 13 ± 2 nM

Q: What about the IC50 (CjIMPDHΔS; read-out: IC50 / 7) of the same compound?
A: 19 ± 2 nM

Q: What about the IC50 (VcIMPDH) of the same compound?
A: > 5000 nM

Q: For BaIMPDH (Bacillus anthracis), which Km [3] is on record?
A: 550 ± 100 µM
